# Calls of active or inactive are those of the source. The rule behind the calls is not given here.
# Assays:
# Helicobacter pylori [1] = assay: Inhibition of Helicobacter pylori recombinant alpha1,3-fucosyltransferase using GDP-[14C]-fucose preincubated for 30 mins by liquid scintillation counting
# [2] = biological target: T1, 4-galactosyl-N-acetylglucosaminide 3-alpha-L-fucosyltransferase 9 (Homo sapiens, UniProt Q9Y231); assay: (§1) Inhibition of human recombinant alpha1,3-fucosyltransferase 9 using GDP-[14C]-fucose preincubated for 30 mins by liquid scintillation counting
# T1 sequence (Q9Y231 whole entry): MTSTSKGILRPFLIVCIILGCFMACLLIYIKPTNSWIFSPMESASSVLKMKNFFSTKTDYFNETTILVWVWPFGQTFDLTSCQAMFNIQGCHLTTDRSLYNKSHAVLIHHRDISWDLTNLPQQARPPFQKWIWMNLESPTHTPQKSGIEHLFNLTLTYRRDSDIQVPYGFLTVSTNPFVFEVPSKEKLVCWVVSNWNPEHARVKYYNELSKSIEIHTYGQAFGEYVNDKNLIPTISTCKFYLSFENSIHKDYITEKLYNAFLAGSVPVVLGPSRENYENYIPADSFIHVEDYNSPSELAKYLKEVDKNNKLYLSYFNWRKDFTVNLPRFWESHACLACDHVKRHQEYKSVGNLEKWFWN
# [3] = biological target: T2, 4-galactosyl-N-acetylglucosaminide 3-alpha-L-fucosyltransferase 9 (Homo sapiens) (UniProt Q9Y231); assay: as §1; design: concentration or dose not given beside the values
# T2 sequence (whole entry): T1 sequence (Q9Y231 whole entry)
# Helicobacter pylori [4] = assay: Inhibition of Helicobacter pylori recombinant alpha1,3-fucosyltransferase using GDP-[14C]-fucose assessed as remaining activity preincubated for 30 mins by liquid scintillation counting
SMILES,inhibition (Helicobacter pylori [1]),IC50 [2] [µM],Ki [2] [µM],inhibition [3],Activity (Helicobacter pylori [4]) [%]
O=c1[nH]cnc2c1ncn2[C@@H]1O[C@H](COP(=O)(O)OP(=O)(O)O)[C@@H](O)[C@H]1O,65%,,,30%,
C[C@@H](O)[C@H](O)[C@H](O)[C@@H](O)C=O,Active,,,inactive,
CC(=O)Nc1nc2c(ncn2[C@@H]2O[C@H](COP(=O)(O)OP(=O)(O)OCc3cn([C@@H]4O[C@H](COC(C)=O)[C@H](OC(C)=O)[C@H](OC(C)=O)[C@H]4OC(C)=O)nn3)[C@@H](OC(C)=O)[C@H]2OC(C)=O)c(=O)[nH]1,45%,,,inactive,
Nc1ncnc2c1ncn2[C@@H]1O[C@H](COP(=O)(O)OP(=O)(O)O)[C@@H](O)[C@H]1O,Active,,,inactive,
Nc1nc2c(ncn2[C@@H]2O[C@H](COP(=O)(O)OP(=O)(O)OCc3cn([C@@H]4O[C@H](CO)[C@H](O)[C@H](O)[C@H]4O)nn3)[C@@H](O)[C@H]2O)c(=O)[nH]1,,247,186,,
C[C@H]1O[C@@H](n2cc(COP(=O)(O)OP(=O)(O)OC[C@H]3O[C@@H](n4cnc5c(=O)[nH]c(N)nc54)[C@H](O)[C@@H]3O)nn2)[C@H](O)[C@@H](O)[C@H]1O,,134,190,,
Nc1nc2c(ncn2[C@@H]2O[C@H](COP(=O)(O)OP(=O)(O)OCc3cn([C@@H]4O[C@H](CO)[C@@H](O[C@@H]5O[C@H](CO)[C@H](O)[C@H](O)[C@H]5O)[C@H](O)[C@H]4O)nn3)[C@@H](O)[C@H]2O)c(=O)[nH]1,,,,45%,
C[C@@H]1O[C@H](n2cc(COP(=O)(O)OP(=O)(O)OC[C@H]3O[C@@H](n4cnc5c(=O)[nH]c(N)nc54)[C@H](O)[C@@H]3O)nn2)[C@@H](O)[C@H](O)[C@@H]1O,,139,137,,

# Next, values leading:
inhibition (Helicobacter pylori [1]),IC50 [2] [µM],Ki [2] [µM],inhibition [3],Activity (Helicobacter pylori [4]) [%],SMILES
< 75%,59,77.9,,,Nc1nc2c(ncn2[C@@H]2O[C@H](COP(=O)(O)OP(=O)(O)O)[C@@H](O)[C@H]2O)c(=O)[nH]1
Active,,,inactive,,Nc1nc2c(ncn2[C@@H]2O[C@H](COP(=O)(O)O)[C@@H](O)[C@H]2O)c(=O)[nH]1
,104,102,78%,,NC[C@@H]1O[C@H](OP(=O)(O)OP(=O)(O)OC[C@H]2O[C@@H](n3cnc4c(=O)[nH]c(N)nc43)[C@H](O)[C@@H]2O)[C@@H](O)[C@H](O)[C@@H]1O
,49,50.3,< 80%,60,Nc1nc2c(ncn2[C@H]2C[C@H](O)[C@@H](CO[P@](=O)(O)OP(=O)(O)O)O2)c(=O)[nH]1
< 75%,94,80.7,< 75%,,Nc1nc2c(ncn2[C@@H]2O[C@H](COP(=O)(O)OP(=O)(O)OP(=O)(O)O)[C@@H](O)[C@H]2O)c(=O)[nH]1 [GUANOSINE TRIPHOSPHATE]
